Measurements reported in patent US4072668A, “LH-RH Analogs” (The Salk Institute for Biological Studies, priority 1974, dated 1978).
Non-standard residues stand in square brackets, D forms with d. Residues, ends and D or L forms follow the SMILES beside them. pGlu = O=C1CC[C@@H](C(=O)O)N1

Tests used:
pituitary gland [1] = system: pituitary gland
[2] = system: dispersed rat pituitary cells; assay: In vitro suppression of LRF-generated LH secretion in dispersed rat pituitary cell culture; type: cell-based; details: molar ratio of peptide to LRF; culture inoculated with 3×10^-5 M of LRF
Procedure: (§1) Using the above method, the peptide compositions set forth below in Tables I and II were prepared. The peptide compositions were assayed in vitro and in vivo. The in vitro assay was made using a 5 day old primary culture of dispersed rat pituitary cells. The LH secreted in response to the peptide compositions was assayed by specific radioimmunoassay for rat LH. The peptide compositions were applied to the culture at a level of 3×10^-5 M. The potency of these peptide compositions which stimulate secretion of gonadotropins is expressed in terms of percent LRF potency wherein LRF has a potency of 100. For those peptide compositions which are antagonistic to secretion of gonadotropins, the culture was inoculated with 3×10^-5 M of LRF and the molar ratio of the peptide required to suppress secretion of LH generated by the LRF was determined.

rats [3] = assay: In vivo suppression of LH secretion generated by injected LRF in rats; design: species or system rat; details: molar ratio of peptide to LRF; rats injected with 100 nanograms of LRF
Procedure: (§2) The effectiveness of the peptide compositions which stimulate secretion of gonadotropins was determined in vivo by intravenous injection of 100 nanograms of the peptide into rats. The rats were chronically ovariectomized and were treated with estrogen and progesterone prior to assay. The LH level was determined in plasma by solid phase radioimmunoassay for rat LH. For those peptide compositions which are antagonistic to secretion of gonadotropins, the rats were injected with 100 nanograms of LRF and the molar ratio of the peptide required to suppress section of LH generated by the LRF was determined.

pituitary gland [4] = assay: Release of gonadotropins after administration to a mammal; type: in vivo; details: 500 nanograms per kilogram of body weight
pituitary gland [5] = assay: Inhibition of release of gonadotropins by the pituitary gland (test not given); design: species or system mammalians; details: relative to Gly6 peptide
[6] = system: dispersed rat pituitary cells; assay: In vitro LH secretion by primary culture of dispersed rat pituitary cells (stimulation), rat LH radioimmunoassay; type: cell-based; details: peptide applied to culture at 3×10^-5 M; LRF has a potency of 100
Procedure: as §1

rats [7] = assay: In vivo plasma LH after intravenous injection into ovariectomized, estrogen/progesterone-treated rats; design: species or system rat; details: intravenous injection of 100 nanograms of peptide, LRF = 100
Procedure: as §2

| Compound | percent potency for effecting release of luteinizing hormone (compared to the LRF decapeptide) (pituitary gland [1]) [%] | Molar ratio necessary to produce inhibition In Vitro [2] | Molar ratio necessary to produce inhibition In Vivo (rats [3]) | further results |
| --- | --- | --- | --- | --- |
| CC(C)C[C@H](NC(=O)[C@@H](CC(C)C)NC(=O)[C@H](Cc1ccc(O)cc1)NC(=O)[C@H](CO)NC(=O)[C@H](Cc1c[nH]c2ccccc12)NC(=O)[C@H](Cc1c[nH]cn1)NC(=O)[C@@H]1CCC(=O)N1)C(=O)N[C@@H](CCCNC(=N)N)C(=O)N1CCC[C@H]1C(=O)NCC(N)=O [D-Leu for Gly] | 60 | – | – | – |
| CC(C)C[C@H](NC(=O)[C@H]1CCCN1C(=O)[C@H](Cc1ccc(O)cc1)NC(=O)[C@H](CO)NC(=O)[C@H](Cc1c[nH]c2ccccc12)NC(=O)[C@H](Cc1c[nH]cn1)NC(=O)[C@@H]1CCC(=O)N1)C(=O)N[C@@H](CCCNC(=N)N)C(=O)N1CCC[C@H]1C(=O)NCC(N)=O [D-Pro] | 10 | – | – | – |
| CC(C)C[C@H](NC(=O)[C@H](NC(=O)[C@H](Cc1ccc(O)cc1)NC(=O)[C@H](CO)NC(=O)[C@H](Cc1c[nH]c2ccccc12)NC(=O)[C@H](Cc1c[nH]cn1)NC(=O)[C@@H]1CCC(=O)N1)C(C)C)C(=O)N[C@@H](CCCNC(=N)N)C(=O)N1CCC[C@H]1C(=O)NCC(N)=O [D-Val for Gly] | 30 | – | – | – |
| CC(C)C[C@H](NC(=O)[C@H](C)NC(=O)[C@H](Cc1ccc(O)cc1)NC(=O)[C@H](CO)NC(=O)[C@H](Cc1c[nH]c2ccccc12)NC(=O)[C@H](Cc1c[nH]cn1)NC(=O)[C@@H]1CCC(=O)N1)C(=O)N[C@@H](CCCNC(=N)N)C(=O)N1CCC[C@H]1C(=O)NCC(N)=O [L-Ala for Gly in the 6-position of LRF] | 3 | – | – | – |
| CCNC(=O)[C@@H]1CCCN1C(=O)[C@H](CCCNC(=N)N)NC(=O)[C@H](CC(C)C)NC(=O)[C@@H](C)NC(=O)[C@H](Cc1ccc(O)cc1)NC(=O)[C@H](CO)NC(=O)[C@H](Cc1c[nH]c2ccccc12)NC(=O)CNC(=O)[C@@H]1CCC(=O)N1 [pGlu-Gly-Trp-Ser-Tyr-D-Ala-Leu-Arg-Pro-NHCH2 CH3] ([pGlu]GWSY[dA]LRP-NHEt) | – | 700 | 500 | – |
| CC(C)C[C@H](NC(=O)CNC(=O)[C@H](Cc1ccc(O)cc1)NC(=O)[C@H](CO)NC(=O)[C@H](Cc1c[nH]c2ccccc12)NC(=O)[C@H](Cc1c[nH]cn1)NC(=O)[C@@H]1CCC(=O)N1)C(=O)N[C@@H](CCCNC(=N)N)C(=O)N1CCC[C@H]1C(=O)NCC(N)=O [pGlu-His-Trp-Ser-Tyr-Gly-Leu-Arg-Pro-Gly-NH2] | – | – | – | release of gonadotropins by the pituitary gland (in words) (pituitary gland [4]): significant release of gonadotropins |
| CC(C)C[C@H](NC(=O)[C@@H](C)NC(=O)[C@H](Cc1ccc(O)cc1)NC(=O)[C@H](CO)NC(=O)[C@H](Cc1c[nH]c2ccccc12)NC(=O)[C@@H]1CCC(=O)N1)C(=O)N[C@@H](CCCNC(=N)N)C(=O)N1CCC[C@H]1C(=O)NCC(N)=O [pGlu-Trp-Ser-Tyr-D-Ala-Leu-Arg-Pro-Gly-NH2] ([pGlu]WSY[dA]LRPG-NH2) | – | 700 | 500 | times more potent as inhibitor for release of gonadotropins than the same peptide with Gly in the 6-position (pituitary gland [5]): 3 times |
| CC(C)C[C@H](NC(=O)CNC(=O)[C@H](Cc1ccc(O)cc1)NC(=O)[C@H](CO)NC(=O)[C@H](Cc1c[nH]c2ccccc12)NC(=O)[C@@H]1CCC(=O)N1)C(=O)N[C@@H](CCCNC(=N)N)C(=O)N1CCC[C@H]1C(=O)NCC(N)=O [pGlu-deleted-Trp-Ser-Tyr-Gly-Leu-Arg-Pro-Gly-NH2] ([pGlu]WSYGLRPG-NH2) | – | 2,000 | 3,000 | – |
| pGlu-His-Trp-Ser-Tyr-Gly-Leu-Arg-Pro-NHCH 2 CH3 | – | – | – | Percent LRF Potency In Vitro [6]: 1,500%; Percent LRF Potency In Vivo (rats [7]): 300% |
